From US5191079A, “Quinolinecarboxylic acid derivatives” (priority 1990, dated 1993)
Converted amounts (≈) assume the structure as drawn.

How the values were obtained:
[1] = tested on: Staphylococcus epidermidis IAM 1296; test: MIC, Experiment 1; assay type: cell-based; conditions: IAM1296, S. epidermidis IAM 1296, Gram +, read-out: Min. inhib. concentr. (MIC)
Procedure: The compounds of the present invention ([…] and Q) were each dissolved in dimethylsulfoxide to prepare a solution of 5000 μg/ml in concentration. The compounds of the present invention (I, J and K) and the known compound (Y) were each dissolved in sterilized distilled water to prepare a solution of 5000 μg/ml in concentration. […] The test was carried out by a method as appointed by Japan Society of Chemotherapy [cf. Chemotherapy, 29, 76-79 (1981), TOKYO]. As to Streptococcus pneumoniae and Streptococcus pyogenes, Brain heart infusion broth (manufactured by DIFCO) was used as the medium for the preculture thereof, and a heart infusion agar medium containing 5% defibrinated horse blood (manufactured by Nissui Seiyaku K. K., Japan) was used as the medium for the measurement of minimum inhibitory concentration (MIC). As to other microorganisms, a sensitivity test broth (manufactured by Nissui Seiyaku K. K.) was used as the medium for the preculture thereof, and a sensitivity test agar medium (manufactured by Nissui Seiyaku K. K.) was used as the medium for the measurement of MIC.

[2] = Acute toxicity, Experiment 5; assay type: in vivo; conditions: oral, 2000 mg/kg, one week
Procedure: The compound (A) or (B) of the present invention was suspended in distilled water to prepare a suspension in concentration of 200 mg/ml and the compound (C) was suspended in distilled water to prepare a suspension in concentration of 100 mg/ml. The suspension was orally administered to ddY male mice (5 weeks age, weighing 19 to 24 g, 5 mice in each group), which had been fasted for 18 hours, at a rate of 2000 mg/kg body weight of the test compound.

bone marrow [3] = test: Micronucleus test, Experiment 7; assay type: in vivo, ICR male mice; conditions: oral 100 to 3000 mg/kg, mouse bone marrow, 24 hours
Procedure: 9,1-(Methylimino)methano-7-fluoro-8-(2-fluoromethylmorpholino)-5-oxo-5H-thiazolo[3,2-a]quinoline-4-carboxylic acid (compound of Example 3) [the compound (C) of the present invention] was suspended in sterilized distilled water. The suspension was orally administered to ICR male mice (8 weeks age, weighing 30 to 36 g, 3 mice in each group) at a rate of 3000, 1000, 300 or 100 mg/kg body weight of the test compound (C). After 24 hours, these mice were killed and the bone marrow was collected and observed the presence of micronuclei.

[4] = tested on: Staphylococcus aureus IID 803; test: MIC, Experiment 1; assay type: cell-based; conditions: IID803, S. aureus IID 803, Gram +, read-out: Min. inhib. concentr. (MIC)
In short: (§1)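 MIC was determined by the Japan Society of Chemotherapy standard method. For S. pneumoniae, preculture was in brain heart infusion broth and MIC was read on heart infusion agar with 5% defibrinated horse blood. Other strains were precultured in sensitivity test broth and tested on sensitivity test agar.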

Bacillus cereus IAM 1029 = test: MIC, Experiment 1; assay type: cell-based; conditions: IAM1029, B. cereus IAM 1029, Gram +, read-out: Min. inhib. concentr. (MIC)
In short: as §1

[5] = tested on: Escherichia coli NIHJ JC-2; test: MIC, Experiment 1; assay type: cell-based; conditions: NIHJJC2, E. coli NIHJ JC-2, Gram -, read-out: Min. inhib. concentr. (MIC)
In short: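 Stocks: 5000 μg/ml in DMSO or sterile distilled water; standard: 1000 μg/ml after water dilution. Method: Japan Society of Chemotherapy.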

[6] = tested on: Staphylococcus aureus IID 803; test: Effect on treatment of general infectious disease (systemic infection in mice), Experiment 3; assay type: in vivo, Staphylococcus aureus; ddY male mice
Procedure: Staphylococcus aureus IID 803
The test microorganism was subjected to standing culture in Brain heart infusion broth (manufactured by DIFCO) at 37° C. for 16 to 18 hours. The culture was then diluted with PBS (Dulbecco's phosphate buffered saline) to adjust the concentration of bacteria to 4×10^7 -8×10^7 CFU/ml. The mixture was mixed with an equivalent amount of 10% (w/v) Mucin (BACTO MUCIN BACTERIOLOGICAL, manufactured by Difco Co.) to prepare a bacterial suspension. The thus prepared bacterial suspension (0.5 ml each) was intraperitoneally inoculated to ddY male mice (5 weeks age, weighing 24-27 g, 5 mice in each group), to infect the animals, by which systemic infectious model was prepared.
The mice were daily observed for one week, and from the survival number of mice after one week, the 50% effective dose (ED50) was calculated by Weil method. This test was repeated several times and the average of ED50 was calculated.

bone marrow [7] = test: Micronucleus test, Experiment 8; assay type: in vivo, ICR male mice; conditions: oral 300, 1000, 3000 mg/kg, mouse bone marrow, 24 or 48 hours
Procedure: The compound (B) or (E) of the present invention was suspended in 1% aqueous gum arabic. The suspension was orally administered to ICR male mice (7-8 weeks age, weighing 30 to 39 g, 5 mice in each group) at a rate of 3000, 1000 or 300 mg/kg body weight of the test compound (B) or (E). After 24 hours or 48 hours, these mice were killed and the bone marrow was collected and observed the presence of micronuclei.

[8] = Acute toxicity, Experiment 6; assay type: in vivo, F344/DuCrj male and female rats; conditions: oral, 1000 and 2000 mg/kg, one week
Procedure: 9,1-(Methylimino)methano-7-fluoro-8-(2-methoxymethylmorpholino)-5-oxo-5H-thiazolo[3,2-a]quinoline-4-carboxylic acid (compound of Example 20) [the compound (E) of the present invention] was suspended in 1% aqueous gum arabic to prepare a suspension in concentration of 100 mg/ml. The suspension was orally administered to F344/DuCrj male and female rats (5 weeks age, weighing 110 to 115 g in male, 91 to 95 g in female, 3 rats in each group), which had been fasted for 5 hours, at a rate of 1000 and 2000 mg/kg body weight of the test compound (E).

Row | SMILES | MIC [1] [µg/mL] | death of mice [2] | micronucleus inducing activity (bone marrow [3]) | MIC [4] [µg/mL] | MIC (Bacillus cereus IAM 1029) [µg/mL] | MIC [5] [µg/mL] | protective effects against infection ([6]; Experiment 3, in words) | ED50 ([6]; Staphylococcus aureus, IID803, 168 h, oral, 1 h after i.p. infection, mice, survival after one week, average of several tests, read-out: 50% effective dose (ED50)) [mg/kg] | micronucleus inducing activity (bone marrow [7]) | death of rats [8]
1 | CN1Cc2csc3c(C(=O)O)c(=O)c4cc(F)c(N5CCOC(CF)C5)c1c4n23 (centres unmarked) [Compound (C), 9,1-(Methylimino)methano-7-fluoro-8-(2-fluoromethylmorpholino)-5-oxo-5H-thiazolo[3,2-a]quinoline-4-carboxylic acid] | 0.025 (≈ 0.0593 µM) | no death of mice was observed | no nucleus inducing activity | ≤ 0.006 | 0.013 (≈ 0.0308 µM) | 0.2 (≈ 0.475 µM) | excellent protective effects against infection | 1.9 | – | –
2 | COCC1CN(c2c(F)cc3c(=O)c(C(=O)O)c4scc5n4c3c2N(C)C5)CCO1 (centres unmarked) [Compound (E), 9,1-(Methylimino)methano-7-fluoro-8-(2-methoxymethylmorpholino)-5-oxo-5H-thiazolo[3,2-a]quinoline-4-carboxylic acid] | 0.05 (≈ 0.115 µM) | – | – | 0.013 (≈ 0.03 µM) | 0.025 (≈ 0.0577 µM) | 0.2 (≈ 0.461 µM) | – | – | no nucleus inducing activity | no death of rats was observed
